Patent publication US9179668B2, “Use of glycerol ethers as activators of the biological effects of a herbicide, fungicide or insecticide substance” (FONDS DE DEVELOPPEMENT DES FILIERES DES OLEAGINEUX ET …, priority 2009, dated 2015)

Key:
herbaceous plants = assay: Spraying of herbicide solutions on 50×50 cm plots of land with herbaceous plants; deterioration of the vegetation observed; format: in vivo
Experimental: The following tests were carried out on plots of land of 50×50 cm on which herbaceous plants occur. Each of the solutions tested is sprayed over a plot which is assigned to it.
The time necessary for the complete destruction of the vegetation was compared, on similar plots planted with herbaceous plants, with a herbicide alone, on the one hand, and the same herbicide to which has been added a glycerol ether: 3-methyloxypropane-1,2-diol, on the other hand.
A solution comprising 6 g/l of glyphosate (in the acid form) was sprayed over plot 1 in a proportion of 36 grams to the m^2.
A solution comprising […] and 0.9 g/l of 3-methyl-oxypropane-1,2-diol was sprayed over plot 2 in a proportion of 36 grams to the m^2.
The following sprayings were carried out on 4 plots covered with herbaceous plants: • Plot 1: glyphosate at 6 g/l (36 g of the solution to the m^2) • Plot 2: glyphosate at 4.5 g/l (36 g of the solution to the m^2) • Plot 3: a solution of glyphosate at 1.5 g/l 3-pentyloxypropane-1,2-diol at 0.9 g/l, in a proportion of 36 g of the solution to the m^2. • Plot 4: a solution of glyphosate at […] 3-pentyloxypropane-1,2-diol at 0.9 g/l, in a proportion of 36 g of the solution to the m^2.

Candida albicans = Candida albicans on agar in a Petri dish with impregnated blotting paper disks; inhibition regions observed; format: cell-based
Source text: In the following examples, the Candida albicans test strain used is sold under the reference ATCC 10231, Collection Institut Pasteur.
A Candida albicans strain was inoculated on agar in a Petri dish. Disks of blotting paper impregnated with the following solutions were subsequently deposited at its surface:
• disk 1 is impregnated with a solution comprising […] • disk 2 is impregnated with a solution comprising 0.5 g/l of mancozeb • disk 3 is impregnated with a solution comprising 0.2 g/l of mancozeb • disk 4 is impregnated with a solution comprising 0.2 g/l of mancozeb and 0.1 g/l of 3-butyloxypropane-1,2-diol.

Lucilia caesar = assay: Spraying of insecticide solution on 30 flies in a cage; degree of mortality; format: in vivo; conditions: 1.8 g of solution; for degree of mortality: diflubenzuron 39.0 mg/l + glycerol ether 47.0 mg/l (cage 2)
Experimental: 30 flies of the species Lucilia caesar were introduced into each of the cages made with a cubic frame from lengths of wood and mosquito screens. One of the faces was pierced with a hole through which a sprayer for the test solution is introduced: • in cage 1, 1.8 g of a solution comprising 39.0 mg/l of diflubenzuron were sprayed • in cage 2, 1.8 g of a solution comprising 39.0 mg/l of diflubenzuron and 47.0 mg/l of 3-isopropyloxypropane-1,2-diol were sprayed.

Sitobion avenae = assay: Spraying of insecticide solution on 25 aphids in a Petri dish; degree of mortality; format: in vivo; conditions: read-out: degree of mortality
Experimental: The aphids of the species Sitobion avenae used in the following examples were supplied by the Université de Picardie d'Amiens [University of Picardy of Amiens], laboratoire de biologie des plantes et contrôle des insectes ravageurs [Plant Biology and Insect Pest Control Laboratory], EA3900, 33, rue Saint Leu, Amiens 80000.
25 aphids of the species Sitobion avenae were introduced into a Petri dish into which the test solution was sprayed: • in dish 1, 1.8 g of a solution comprising 39.0 mg/l of diflubenzuron were sprayed; • in dish 2, 1.8 g of a solution comprising 39.0 mg/l of diflubezuron and 47.0 mg/l of 3-isopropyloxypropane-1,2-diol were sprayed.

[1] = glyphosate 6 g/l alone, 36 g of solution per m^2 (plot 1)
[2] = glyphosate 1.5 g/l + glycerol ether 0.9 g/l, 36 g of solution per m^2
[3] = glyphosate 6 g/l + glycerol ether 0.9 g/l, 36 g of solution per m^2 (plot 2)
[4] = glyphosate 3 g/l + glycerol ether 0.9 g/l, 36 g of solution per m^2

Row | Compound | state of plot after 30 days (herbaceous plants; [2]) | time after which deterioration began (herbaceous plants; [3]) | time after which deterioration was complete (herbaceous plants; [3]) | state of plot after 30 days (herbaceous plants; [4]) | also measured
1 | O=C(O)CNCP(=O)(O)O [glyphosate, reference compound] | – | – | – | – | state of plot after 30 days (herbaceous plants; glyphosate 4.5 g/l alone, 36 g of solution per m^2 (plot 2)): unaffected; state of plot after 30 days (herbaceous plants; [1]): completely deteriorated; time after which deterioration began (herbaceous plants; [1]): 8 days; time after which deterioration was complete (herbaceous plants; [1]): 18 days
2 | CCCCCOCC(O)CO (centres unmarked) [3-pentyloxypropane-1,2-diol] | completely deteriorated | 3 days | 10 days | – | inhibition region of growth around the disk (Candida albicans; mancozeb 0.2 g/l + glycerol ether 0.25 g/l (disk 4)): circular regions of inhibition of the growth; state of plot after 30 days (herbaceous plants; glyphosate 0.75 + glycerol ether 0.9 g/l, 36 g of solution per m^2): unaffected
3 | CCCCCCCCCCOCC(O)CO (centres unmarked) [3-decyloxypropane-1,2-diol] | – | 4 days | 11 days | – | –
4 | mancozeb [reference compound] | – | – | – | – | inhibition region of growth around the disk (Candida albicans; mancozeb 0.2 g/l alone (disk 3)): absence was observed of an inhibition region; inhibition region of growth around the disk (Candida albicans; mancozeb 0.5 g/l alone (disk 2)): absence was observed of an inhibition region; inhibition region of growth around the disk (Candida albicans; mancozeb 0.8 g/l alone (disk 1)): circular regions of inhibition of the growth
5 | O=C(NC(=O)c1c(F)cccc1F)Nc1ccc(Cl)cc1 [diflubenzuron, reference compound] | – | – | – | – | mortality at 39 µg/mL (Lucilia caesar; Lucilia caesar, diflubenzuron 39.0 mg/l alone (cage 1)): 29%; mortality at 39 µg/mL (Sitobion avenae): 21%
6 | CC(C)CCCCCCOCC(O)CO (centres unmarked) [3-isononyloxypropane-1,2-diol] | unaffected | – | – | completely deteriorated | –
7 | CCCCC(CC)COCC(O)CO (centres unmarked) [3-(2-ethylhexyloxy)propane-1,2-diol] | unaffected | 3 days | 11 days | completely deteriorated | inhibition region of growth around the disk (Candida albicans; mancozeb 0.2 g/l + glycerol ether 0.05 g/l (disk 4)): circular regions of inhibition of the growth; degree of mortality (Lucilia caesar): 56%
8 | CC(C)OCC(O)CO (centres unmarked) [3-isopropyloxypropane-1,2-diol] | unaffected | 3 days | 12 days | completely deteriorated | degree of mortality (Lucilia caesar): 64%
9 | COCC(O)COC [1,3-dimethyloxypropan-2-ol] | – | 4 days | 15 days | – | –
10 | CCOCC(O)CO (centres unmarked) [3-ethyloxypropane-1,2-diol] | – | 3 days | 11 days | – | –
11 | CCCCOCC(O)CO (centres unmarked) [3-butyloxypropane-1,2-diol] | unaffected | 3 days | 10 days | completely deteriorated | inhibition region of growth around the disk (Candida albicans; mancozeb 0.2 g/l + glycerol ether 0.1 g/l (disk 4)): circular regions of inhibition of the growth
12 | COCC(O)CO (centres unmarked) [3-methyloxypropane-1,2-diol] | – | 4 days | 13 days | – | –
13 | CCCCCCOCC(O)CO (centres unmarked) [3-hexyloxypropane-1,2-diol] | unaffected | 3 days | 10 days | completely deteriorated | –
14 | Cc1nc(N(C)C)nc(OC(=O)N(C)C)c1C [pirimicarb] | – | – | – | – | mortality at 78.1 µg/mL (Sitobion avenae): 16%
15 | CCOCC(O)COCC [1,3-diethyloxypropan-2-ol] | – | 4 days | 13 days | – | –
